Drawing on PMC12040169 (PLOS Biology, 2025), this text covers viability for 80 molecules.

As a reminder, the viability is a read-out of living cells in per cent, often relative to untreated cells.

The nature of this series: in vitro. The settings on record: human, hela cells, % viability.

For `c1ccc(-c2nc3sc4c(ncn5cnnc45)c3c3c2CCC3)cc1` [CBK269566], the viability at 28.5 h, 10 µM is 84.3%.
Same read-out and setting: with `O=C(O)C1CSC(c2cccnc2)N1` (centres unmarked) [CBK260910] the figure was 111%; with `COc1cc(C)c(Nc2cc(-c3ccc4c(c3)OCO4)ncn2)cc1OC` [CBK037711], 98.9%; with `O=[N+]([O-])c1ccc(NC(=S)NCCCn2ccnc2)cc1` [CBK264915], 93.3%.
Same read-out and setting: to `COc1ccc(OC)c(NC(=O)COc2ccc(C(C)C)cc2)c1` [CBK263498] belongs 114%; to `COc1ccc(F)cc1S(=O)(=O)N1CCCN(S(=O)(=O)c2cc(F)ccc2OC)CC1` [CBK266555], 93.5%.
`Cc1cc(C)n(C2CN(C(=O)NCCCOc3cccnc3)C2)n1` [CBK307632]: the viability at 28.5 h, 10 µM is 84.1%.
Same read-out and setting: to `O=C(CN(c1ccccc1)S(=O)(=O)c1ccccc1)N1CCN(Cc2ccc3c(c2)OCO3)CC1` [CBK265290] belongs 90%; to `Cc1nc(C)c(CC(=O)N(C)CC2OCCc3ccccc32)s1` (centres unmarked) [CBK281478], 90.9%.
Same read-out and setting: with `CCN(CCO)c1ccc(Nc2nc(-c3c(OC)cccc3OC)cn3ccnc23)cc1` [CBK066267] the figure was 89.9%; with `O=C(c1cccnc1)N1CCCC2(CCN(C(=O)c3ccoc3)C2)C1` (centres unmarked) [CBK131640], 97%; with `O=C(c1cn2ccccc2n1)N1CCCN(Cc2cscn2)CC1` [CBK305352], 104%.
Still for that read-out and setting: with `CCNC(=O)N1CCN(CCCC(O)c2ccc(F)cc2)CC1` (centres unmarked) [CBK025001C] the figure was 118%; with `COc1ccc(-c2ccc(CCC(=O)O)n2-c2ccc(N(C)C)cc2)cc1` [CBK131895], 110%; with `Cc1ccc(-c2nc3ccccc3[nH]2)cc1NC(=O)CCCc1ccccc1` [CBK265789], 92.9%.
On to `CC(C)Nc1cccnc1N(C)C1CCN(C(=O)c2cc(Br)c[nH]2)CC1` [CBK016797], for which the viability at 28.5 h, 10 µM was found to be 105%.
As for `Cc1cc(C)nc(N(C#N)CC(=O)N2c3ccccc3CCc3ccccc32)n1` [CBK266509], the viability at 28.5 h, 10 µM came to 112%.
In the case of `CCn1cc(C(=O)N2CCCC2c2nc3ccccc3[nH]2)c(C)n1` (centres unmarked) [CBK283777], the viability at 28.5 h, 10 µM worked out at 90.2%.
Same read-out and setting: with `CC1(C)CC(NCC(O)COc2cc(C(C)(C)C)c(O)c(C(C)(C)C)c2)CC(C)(C)N1` (centres unmarked) [CBK264564] the figure was 124%; with `COc1cc(CN2CCN(c3cc(C)ccc3C)CC2)ccc1OCc1ccccc1` [CBK261898], 86.6%; with `CN1CCC(CN(C)CC2CCCN(Cc3ccccc3)C2)C1` (centres unmarked) [CBK282946], 90.7%.
Still for that read-out and setting: with `CCN(CC)C(=O)C1C2CCC3(CC(=O)c4ccccc4O3)C21` (centres unmarked) [CBK284923] the figure was 105%; with `CN(C)c1ccc(/C=N/N=C2\NC(=O)CS2)cc1` [CBK019273], 60.6%; with `Cc1nccn1CC1(O)CCN(CC2=CCC3CC2C3(C)C)CC1` (centres unmarked) [CBK284981], 94.6%.
Take `CNC(=O)N1CCN(CCOC(c2ccc(F)cc2)c2ccc(F)cc2)CC1` [CBK024948C]: the viability at 28.5 h, 10 µM is 87.3%.
Still for that read-out and setting: with `CCc1cc(CNS(=O)(=O)c2cc(C)ccc2F)on1` [CBK283064] the figure was 108%; with `O=S(=O)(Nc1nnc(C(F)(F)F)s1)c1ccc(Br)cc1C(F)(F)F` [CBK062013], 96.7%; with `COCc1nnc(Sc2nccc(C(F)(F)F)n2)s1` [CBK093790], 99.5%.
`CCOC(=O)C1(c2ccccc2)CCN(CC(=O)Nc2ccc(C(=O)OC)cc2)CC1` [CBK020942]: the viability at 28.5 h, 10 µM (bulk resorufin, single well) turned out to be 92.9%.
As to `Cc1ccc(O)c(CN(CCCn2ccnc2)CC2CC=CCC2)c1` (centres unmarked) [CBK282829], the viability at 28.5 h, 10 µM was determined as 86.7%.
For the molecule `COc1cccc(C(=O)Nc2ccc(-c3noc(-c4ccncc4)n3)cc2)c1` [CBK269892], the viability at 28.5 h, 10 µM amounted to 93.4%.
The same measure, in the same setting: with `Cc1cc(S(=O)(=O)Nc2ccccc2-c2nncn2C)c(C)o1` [CBK306414] the figure was 85.9%; with `CC(C)NC(=O)[C@H]1CN(C(=O)c2cc[nH]n2)C[C@@H]1c1ccnc(N2CCCC2)n1` [CBK285526], 89.3%.
On to `Cc1ccc(C)c(-n2nnnc2SC(C)C(=O)N2CCCC2)c1` (centres unmarked) [CBK295204], for which the viability at 28.5 h, 10 µM was 79.9%.
Consider `Cc1cccc(-c2nc(C(N)=O)c3[nH]c(=O)n(-c4ccc(F)cc4)c3n2)c1` [CBK287632], for which the viability at 28.5 h, 10 µM was determined as 111%.
Same read-out and setting: to `CC(C)C(=O)Nc1ccc2c(-c3ccc4c(c3)OCCCO4)ccnc2n1` [CBK073675] belongs 96.7%; to `COc1ccc(N)cc1OCc1cn2ccccc2n1` [CBK295609], 57.2%.
On the same count and under the same terms, to `COc1ccc(Br)cc1CNCc1ccc(C(=O)O)cc1` [CBK269449C] belongs 96.2%.
Consider `c1ccc(-c2cc(CC3(NCc4c[nH]c5ccccc45)COC3)no2)nc1` [CBK289250], for which the viability at 28.5 h, 10 µM stood at 102%.
Same read-out and setting: with `O=C(O)c1cccc(NCC(=O)c2ccccc2)c1` [CBK287163] the figure was 88.8%.
With `Cc1nc2ccccc2nc1COC(=O)c1ccc(S(=O)(=O)N2CCCCC2C)cc1` (centres unmarked) [CBK297932], the viability at 28.5 h, 10 µM is 90.7%.
On the same count and under the same terms, to `FC(F)(F)c1ccnc(Sc2ccncc2)c1` [CBK093793] belongs 92.3%; to `Cc1nc(SCCN2C(=O)c3ccccc3S2(=O)=O)c2ccccc2n1` [CBK296958], 90%; to `COC(=O)C1(Cc2ccccc2-c2ccncc2)CCOCC1` [CBK284709], 95.2%.
On the same count and under the same terms, to `O=C(NCc1ccccc1)/C(=N\O)c1ccccc1` [CBK288427] belongs 91.9%; to `CC(C)c1ccc(S(=O)(=O)NCCC#N)cc1` [CBK044722], 105%; to `Cc1c(C(=O)O)sc2nc(C=Cc3cc([N+](=O)[O-])ccc3Cl)[nH]c(=O)c12` [CBK295613], 121%.
On the same count and under the same terms, with `Cc1ccc(OC2(C(=O)N3CCCC3c3nccs3)CCNCC2)cc1` (centres unmarked) [CBK307539] the figure was 94.6%; with `N=C(N)SCC1CNC(=N)S1` (centres unmarked) [CBK260991], 99.3%.
Regarding `O=C(NCCn1ccnc1)C1CC(=O)N(c2cccc(F)c2)C1` (centres unmarked) [CBK281582], the viability at 28.5 h, 10 µM stood at 105%.
Same read-out and setting: with `COc1ccc(C2N(CCC(=O)O)CCOC23CCN(C(=O)c2ccc4ccccc4c2)CC3)cc1` (centres unmarked) [CBK115960] the figure was 102%.
The same measure, in the same setting: to `O=C1NC(c2ccccc2)Cc2onc(-c3ccccc3)c21` (centres unmarked) [CBK004409] belongs 90.9%; to `Cc1n[nH]c(-c2ccccc2NC(=O)Cc2sc(C)nc2-c2cccs2)n1` [CBK297737], 88.5%.
On the same count and under the same terms, with `O=c1c(N2CCC(Sc3ccccc3)CC2)nccn1Cc1ccc(-n2cncn2)cc1` [CBK153655] the figure was 90.9%.
For `OCc1cccc(-c2cncc(N3CCN(CCN4CCCC4)CC3)n2)c1` [CBK066136], the viability at 28.5 h, 10 µM amounted to 99.8%.
The same measure, in the same setting: with `CCOC(=O)[C@@]12CC=CCN(C(=O)c3cccnc3)[C@@H]1CCC2` [CBK284575] the figure was 90.8%; with `CC(C)c1nc(CCN(C)C(=O)NCc2cc(-c3ccco3)on2)no1` [CBK307443], 97.8%; with `Cc1ccc2nc(NCC(=O)O)nc(-c3ccccc3)c2c1` [CBK287002], 84.4%.
Still for that read-out and setting: to `CC(C)NC(=O)C1CCN(c2nc3ccccc3n2C)CC1` [CBK283986] belongs 87.5%.
Same read-out and setting: to `CCc1nc(CN2CCCC(NCc3ccc(C(N)=O)cc3)C2)no1` (centres unmarked) [CBK305373] belongs 94.2%; to `CCCNC(=O)N1CCC(n2cnc3cccnc32)CC1` [CBK282282], 84.3%; to `Cc1nn(C)c(Oc2cccc(C(F)(F)F)c2)c1C(=O)O` [CBK000324], 102%.
With `O=C(NC(=O)C1CCN(CCc2ccc3c(c2)CCO3)CC1)Nc1ccccc1Cl` [CBK035147], the viability at 28.5 h, 10 µM was 84.3%.
On to `Cn1c(COc2ccccc2)nnc1SCc1nnc(-c2ccccc2)o1` [CBK269628], for which the viability at 28.5 h, 10 µM came to 94.1%.
Regarding `CN1CCN(CCCN2C(=O)CSC2c2cccc([N+](=O)[O-])c2)CC1` (centres unmarked) [CBK278237C], the viability at 28.5 h, 10 µM came to 99.9%.
On the same count and under the same terms, to `Nn1c(SCc2cc(=O)[nH]c3ccccc23)nnc1C(O)c1ccccc1` (centres unmarked) [CBK268405] belongs 99.2%.
On the same count and under the same terms, to `NC[C@H]1CC[C@H](C(=O)NCCN2CCc3ccccc32)CC1` [CBK282723] belongs 82.7%; to `O=c1c2ccccc2nc2n1CCN(Cc1cc(F)ccc1F)CC2` [CBK284818], 99.1%.
Same read-out and setting: with `CCCNC(c1ccccc1)c1ccncc1` (centres unmarked) [CBK028505] the figure was 96.7%; with `CC(C)(C)c1csc(C(=Cc2ccc(C#N)cc2)C(N)=O)n1` [CBK001154], 88.7%.
For the molecule `Cc1nc(C(Cc2ccsc2)NC(=O)C2CCCNC2)sc1C` (centres unmarked) [CBK282228], the viability at 28.5 h, 10 µM came out at 87.6%.
On the same count and under the same terms, to `N#Cc1ccc(-c2cnc(N)c(-c3ccccc3Cl)n2)cc1` [CBK113660] belongs 88.5%.
On the same count and under the same terms, with `O=C(Nc1cc(N2CCNCC2)ncn1)c1cnc2ccccc2c1` [CBK004209T] the figure was 80.5%.
On the same count and under the same terms, with `O=C(OCc1ccccc1)N1CCC(C2OCc3cc(-c4ccc(C(=O)N5CCCC5)cc4)ccc3O2)CC1` (centres unmarked) [CBK153260] the figure was 108%.
On to `Cc1ccc(-c2nc(C3CCN(C(=O)NC(C)C)CC3)n3ccccc23)cc1` [CBK046861], for which the viability at 28.5 h, 10 µM is 95%.
As to `Oc1ccc(Nc2nc3nonc3nc2Nc2ccccc2)cc1` [CBK263551], the viability at 28.5 h, 10 µM stood at 94%.
Still for that read-out and setting: with `NC(=O)c1ccc(NC(=O)COc2ccc3ccccc3c2)cc1` [CBK263738] the figure was 101%; with `COC(=O)CCCC(=O)n1c(=O)n(CC2CCCCC2)c2ccccc21` [CBK106524], 112%; with `COC(=O)C(CC(C)C)Nc1nc(OC)cc(OC)n1` (centres unmarked) [CBK058765], 121%.
Still for that read-out and setting: with `CC(C)C1CC(CCNCc2ccc(N(C)C)cc2)(c2ccccc2)CCO1` (centres unmarked) [CBK266210] the figure was 98.9%.
